According to patent US20250222028A1, “ENGINEERED IMMUNE CELL PLATFORM” (Cancer Research Technology Limited, priority 2022, published 2025):

Test system: Gli1
Assay: Gli1 expression by qRT-PCR in anti-CD3ε-stimulated murine CD8+ CTLs
Format: cell-based
Method: FIG. 1. L-type Cav channel agonists increase Gli1 expression and enhance specific cell killing by murine CD8+ CTLs. CD8^+ T cells were isolated from the spleen and inguinal lymph nodes of Rag2^−/− OT-I mice, and CTLs were generated. (A) Cells were restimulated on day 9/10 for 3 hours using plate-bound anti-CD3ε in the presence of indicated concentrations of FPL 64176 or carrier control. RNA was extracted and Gli1 expression was assessed by qRT-PCR. Data is n=3 independent experiments. us=unstimulated cells. (B) An LDH cytotoxicity assay was performed using OT-I CTLs. On day 7, CTLs were co-cultured with Ova peptide-pulsed EL-4 cells in the presence of 10 μM FPL 64176 (squares) or carrier control (circles). Data is n=4 independent experiments. (C) Updated experiment of (A). Data is now n=4 independent experiments. Data is normalised to Tbp as a reference gene. 0h=unstimulated cells. (D) Same data as (B) represented differently. […] Error bars indicate SD. p values were calculated using an unpaired two-tailed Student's t test (C) or a two-way ANOVA (B/D). * indicates p<0.05, ** indicates p<0.01, **** indicates p<0.0001.
FIG. 2. FPL 64176 but not (R)-Baclofen nor Nefiracetam enhance Gli1 expression in murine CD8+ CTLs. Naïve CD8^+ T cells were isolated from the spleens of OT-I Rag2^−/− mice and CTLs were generated. Cells were restimulated using an anti-CD3ε mAb in the presence indicated concentrations of (A) FPL 64176, (B) (R)-Baclofen or (C) Nefiracetam (or carrier control). CTLs were pre-incubated with the relevant pharmacological agents for 40-50 mins prior to stimulation (ensuring sufficient time for the agents, e.g., FPL 64176, to enter the cell. Gli1 expression was assessed by qRT-PCR. Data is n=2 independent experiments. Error bars indicate SD.
To investigate a potential role for L-type Cav channel agonists in modulating CD8+ CTL activation and effector function, CD8+ T cells were isolated from the spleen and inguinal lymph nodes of Rag2−/− OT-I mice and CTLs were generated. […] OT-I mice bear a transgene encoding for a TCR that recognises a chicken ovalbumin (Ova) peptide fragment. Rag2−/− OT-I mice facilitate the isolation of naïve CD8+ T cell populations. Plates were coated using 2.5 μg/mL anti-CD3ε mAb and CD8+ CTLs were stimulated for 3 hours via the TCR in the presence of 5 or 10 μM FPL 64176, an L-type Cav channel agonist, or carrier control. Note that CD8+ CTLs were pre-incubated with FPL 64176 or carrier control for 40-50 mins before stimulation. Gli1 expression was assessed using qRT-PCR.
In brief, naïve CD8+ T cells were isolated from the spleen and inguinal lymph nodes of C57BL/6 wildtype mice and CTLs were generated. […] RNA was extracted from cells and Gli1 expression was assessed by qRT-PCR. […]

## COC(=O)c1c(C)[nH]c(C)c1C(=O)c1ccccc1Cc1ccccc1 [FPL 64176]
anti-CD3ε restimulation 6 hours, indicated concentrations, vs carrier control (FIG. 2)
  Gli1 expression following TCR activation: successfully enhances
anti-CD3ε stimulation 3 hours, 5 or 10 μM, pre-incubation 40-50 mins, vs carrier control
  Gli1 expression: dose-dependent increase
